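All cell lines were grown in 96-well plates and treated with compound for 48 hours. At the GI50, growth is halved.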 Active and inactive are the calls of the source. Rule as the data show it: active = GI50 up to about 1.1 µM and inactive = higher.
Experiments:
Assay in all cases: NCI-60 cell line screen, 48 h
[1] = system: BT-549
[2] = system: IGROV-1
[3] = system: HCT-15
[4] = system: CCRF-CEM
[5] = system: Malme-3M
[6] = system: EKVX
[7] = system: HCT-116
[8] = system: M14
[9] = system: OVCAR-8
[10] = system: NCI-H460
[11] = system: SK-OV-3
[12] = system: T47D
[13] = system: HCC 2998
[14] = system: SF-268
[15] = system: K562
[16] = system: DU-145
[17] = system: ACHN
[18] = system: SK-MEL-28
[19] = system: SF-539
[20] = system: Hs-578T
[21] = system: MCF7
[22] = system: MDA-N
[23] = system: KM12
[24] = system: SNB-19
[25] = system: U-251
[26] = system: LOX IMVI
[27] = system: SK-MEL-2
[28] = system: MDA-MB-435
[29] = system: SW-620
[30] = system: SNB-75
[31] = system: SK-MEL-5
[32] = system: NCI-H226
[33] = system: OVCAR-3
[34] = system: A549
[35] = system: RXF 393
[36] = system: 786-0
[37] = system: HT-29
[38] = system: MOLT-4
[39] = system: HL-60
[40] = system: TK-10
[41] = system: NCI-H23
[42] = system: OVCAR-5
[43] = system: NCI/ADR-RES
[44] = system: UO-31
[45] = system: OVCAR-4
[46] = system: COLO 205
[47] = system: PC-3
[48] = system: RPMI-8226
[49] = system: SF-295
[50] = system: MDA-MB-231
[51] = system: HOP-62
[52] = system: SN12C
[53] = system: SR
[54] = system: UACC-257
[55] = system: UACC-62
[56] = system: NCI-H522
[57] = system: A498
[58] = system: CAKI-1

In the case of `CCOP(=O)(OCC)C(C)(CC)N/C(N)=N/C#N` (stereo not given), the GI50 [1] is reported as > 100 µM (inactive), the GI50 [2] is reported as > 100 µM (inactive) and the GI50 [3] is reported as greater than 100 µM. The GI50 [4] was > 100 µM (inactive), the GI50 [5] was > 100 µM (inactive) and the GI50 [6] was > 100 µM (inactive). The GI50 [7] was > 100 µM (inactive), the GI50 [8] was > 100 µM (inactive) and the GI50 [9] was > 100 µM (inactive). The GI50 [10] was > 100 µM (inactive), the GI50 [11] was > 100 µM (inactive) and the GI50 [12] was > 100 µM (inactive). For the same compound, the GI50 [13] was > 100 µM (inactive), the GI50 [14] was > 100 µM (inactive) and the GI50 [15] was > 100 µM (inactive). For the same compound, the GI50 [16] was > 100 µM (inactive), the GI50 [17] was > 100 µM (inactive) and the GI50 [18] was > 100 µM (inactive). The GI50 [19] was > 100 µM (inactive), the GI50 [20] was > 100 µM (inactive) and the GI50 [21] was > 100 µM (inactive). The GI50 [22] was > 100 µM (inactive), the GI50 [23] was > 100 µM (inactive) and the GI50 [24] was > 100 µM (inactive). For the same compound, the GI50 [25] was > 100 µM (inactive), the GI50 [26] was > 100 µM (inactive) and the GI50 [27] was > 100 µM (inactive). The GI50 [28] was > 100 µM (inactive), the GI50 [29] was > 100 µM (inactive) and the GI50 [30] was > 100 µM (inactive). For the same compound, the GI50 [31] was > 100 µM (inactive), the GI50 [32] was > 100 µM (inactive) and the GI50 [33] was > 100 µM (inactive). For the same compound, the GI50 [34] was > 100 µM (inactive), the GI50 [35] was > 100 µM (inactive) and the GI50 [36] was > 100 µM (inactive). For the same compound, the GI50 [37] was > 100 µM (inactive), the GI50 [38] was > 100 µM (inactive) and the GI50 [39] was > 100 µM (inactive). For the same compound, the GI50 [40] was > 100 µM (inactive), the GI50 [41] was > 100 µM (inactive) and the GI50 [42] was > 100 µM (inactive). The GI50 [43] was > 100 µM (inactive), the GI50 [44] was > 100 µM (inactive) and the GI50 [45] was > 100 µM (inactive). For the same compound, the GI50 [46] was > 100 µM (inactive), the GI50 [47] was > 100 µM (inactive) and the GI50 [48] was > 100 µM (inactive). The GI50 [49] was > 100 µM (inactive), the GI50 [50] was > 100 µM (inactive) and the GI50 [51] was > 100 µM (inactive). For the same compound, the GI50 [52] was > 100 µM (inactive), the GI50 [53] was > 100 µM (inactive) and the GI50 [54] was > 100 µM (inactive). The GI50 [55] was > 100 µM (inactive).

`COC1OC(C(C)O)C2OC(C)(C)OC12` (stereo not given) was tested, and the GI50 [1] was > 100 µM (inactive), the GI50 [2] was > 100 µM (inactive) and the GI50 [3] was greater than 100 µM. For the same compound, the GI50 [4] was > 100 µM (inactive), the GI50 [6] was > 100 µM (inactive) and the GI50 [7] was > 100 µM (inactive). The GI50 [8] was > 100 µM (inactive), the GI50 [9] was > 100 µM (inactive) and the GI50 [10] was > 100 µM (inactive). For the same compound, the GI50 [11] was > 100 µM (inactive), the GI50 [12] was > 100 µM (inactive) and the GI50 [14] was > 100 µM (inactive). For the same compound, the GI50 [15] was > 100 µM (inactive), the GI50 [16] was > 100 µM (inactive) and the GI50 [17] was > 100 µM (inactive). For the same compound, the GI50 [18] was > 100 µM (inactive), the GI50 [19] was > 100 µM (inactive) and the GI50 [20] was > 100 µM (inactive). The GI50 [21] was > 100 µM (inactive), the GI50 [22] was > 100 µM (inactive) and the GI50 [23] was > 100 µM (inactive). For the same compound, the GI50 [24] was > 100 µM (inactive), the GI50 [25] was > 100 µM (inactive) and the GI50 [26] was > 100 µM (inactive). For the same compound, the GI50 [27] was > 100 µM (inactive), the GI50 [28] was > 100 µM (inactive) and the GI50 [29] was > 100 µM (inactive). For the same compound, the GI50 [30] was > 100 µM (inactive), the GI50 [31] was > 100 µM (inactive) and the GI50 [32] was > 100 µM (inactive). The GI50 [33] was > 100 µM (inactive), the GI50 [34] was > 100 µM (inactive) and the GI50 [36] was > 100 µM (inactive). The GI50 [37] was > 100 µM (inactive), the GI50 [38] was > 100 µM (inactive) and the GI50 [39] was > 100 µM (inactive). For the same compound, the GI50 [40] was > 100 µM (inactive), the GI50 [56] was > 100 µM (inactive) and the GI50 [41] was > 100 µM (inactive). The GI50 [42] was > 100 µM (inactive), the GI50 [57] was > 100 µM (inactive) and the GI50 [58] was > 100 µM (inactive). The GI50 [43] was > 100 µM (inactive), the GI50 [44] was > 100 µM (inactive) and the GI50 [45] was > 100 µM (inactive). The GI50 [46] was > 100 µM (inactive), the GI50 [47] was > 100 µM (inactive) and the GI50 [48] was > 100 µM (inactive). The GI50 [49] was > 100 µM (inactive), the GI50 [50] was > 100 µM (inactive) and the GI50 [51] was > 100 µM (inactive). The GI50 [52] was > 100 µM (inactive), the GI50 [53] was > 100 µM (inactive) and the GI50 [54] was > 100 µM (inactive). For the same compound, the GI50 [55] was > 100 µM (inactive).
